Experimental findings from article PMC8406809 (Antimicrobial Agents and Chemotherapy, 2021) are described below.

The test system of data set [1] is original-SARS2 (P2VeroE6 virus, SARS-CoV-2_DK-AHH1). Nature of the data set: microbe, parasite or virus in culture. The data set is classed as cell-based.
The test system of the next data set is Huh7.5 cells. The format is cell-based, human. As to conditions: higher concentrations marked # in Fig. 4A.

What is called EC50 is the midpoint of the concentration-response curve. Low readings indicate a more potent agent, high ones a less potent agent.

In the case of `CCC(CC)COC(=O)[C@H](C)N[P@](=O)(OC[C@H]1O[C@@](C#N)(c2ccc3c(N)ncnn23)[C@H](O)[C@@H]1O)Oc1ccccc1` [Remdesivir], in data set [1], the “fold-higher activity in Huh7.5 cells than in Vero E6 cells” value is listed as ~50 fold. The same compound registered an EC50 in data set [1] (Severe acute respiratory syndrome coronavirus 2, Huh7.5) of 30 nM. Consider `COc1c(NC(=O)C(=O)c2ccc(OCCN3CCOCC3)c3ccccc23)cc(C(C)(C)C)cc1NS(C)(=O)=O` [ITX5061], for which, in the data set on Huh7.5 cells, the cytotoxicity result was “cytotoxic”.
